Measured values reported in patent US8388986B2, “Use of cationic surfactants in cosmetic preparations” (priority 2001, dated 2013).

How the values were obtained:
[1] = tested on: Serratia marcenses CECT 274; experiment: minimum inhibitory concentration; type: cell-based; conditions: Gram − Bacteria
Fungi = experiment: preservative efficacy (Antimicrobial Effectiveness Testing USP 24th Edition) in cosmetic formulations; type: cell-based, Aspergillus niger ATCC 16404; conditions: 0.20 g of LAE
Procedure: This assay consists of the contamination of the protecting formulations with an inoculum mixture of 10^8 cfu/mL concentration, for each of the microorganisms, and the determination of the number of viable cells in the time. This inoculum mixture is composed of the following microorganisms:
The cosmetic composition to be analysed is divided into sterile containers with 50 g of product for each flask. Each container is inoculated with 0.5 mL of inoculum (10^8 cfu/mL). The target concentration is 10^6 cfu/mL, approximately. All the containers are kept at a temperature between 20-25° C. and are protected from light.
The level of the microbial contamination is checked at 0 hours, 7 days, 14 days and 28 days. The number of colonies is evaluated by dilution in buffer peptone with the appropriate neutraliser agent of the preservative. The culture media used for counting the microorganisms are: Soya triptone (35-37° C., 48 hours) for the determination of bacteria; Sabouraud agar with chloramphenicol for fungi and yeast (25° C., 3-5 days).
According to Antimicrobial Effectiveness Testing USP 24th Edition, 1999 (pp. 1809-1811), an antimicrobial preservative is considered to be effective in topically used products made with aqueous bases or vehicles, non-sterile nasal products and emulsions, including those applied to mucous membranes, if: • Not less than 2.0 logarithm reduction from the initial calculated bacteria's count is reached at 14 days and no increase from the 14 days' count at 28 days is detected; and • No increase from the initial calculated count of yeast and moulds is observed.

[2] = tested on: Bacillus cereus var mycoide ATCC 11778; experiment: minimum inhibitory concentration; type: cell-based; conditions: Gram + Bacteria
[3] = tested on: Micrococcus luteus ATCC 9631; experiment: minimum inhibitory concentration; type: cell-based; conditions: Gram + Bacteria
[4] = tested on: Leuconostoc mesenteroides CETC 912; experiment: minimum inhibitory concentration; type: cell-based; conditions: Gram + Bacteria

CCCCCCCCCCCC(=O)N[C@@H](CCCN=C(N)N)C(=O)OCC.Cl [LAE, ethyl ester of the lauramide of the arginine monohydrochloride]
M.I.C. [1]: 32 ppm | viable count With LAE (Fungi; Example 1, oil-in-water emulsion with non-ionic surfactant, 7 days): <9.9 · 10^1 cfu/mL | viable count With LAE (Fungi; Example 1, oil-in-water emulsion with non-ionic surfactant, 14 days): <9.9 · 10^1 cfu/mL | viable count With LAE (Fungi; Example 1, oil-in-water emulsion with non-ionic surfactant, Initial): 1.7 · 10^4 cfu/mL | viable count With LAE (Fungi; Example 2, oil-in-water emulsion with an ionic emulsifier, 7 days): <9.9 · 10^1 cfu/mL | viable count With LAE (Fungi; Example 2, oil-in-water emulsion with an ionic emulsifier, 14 days): <9.9 · 10^1 cfu/mL | viable count With LAE (Fungi; Example 2, oil-in-water emulsion with an ionic emulsifier, Initial): 1.4 · 10^4 cfu/mL | viable count With LAE (Fungi; Example 3, water in oil emulsion with non-ionic emulsifiers, 7 days): <9.9 · 10^1 cfu/mL | viable count With LAE (Fungi; Example 3, water in oil emulsion with non-ionic emulsifiers, 14 days): <9.9 · 10^1 cfu/mL | viable count With LAE (Fungi; Example 3, water in oil emulsion with non-ionic emulsifiers, Initial): 1.0 · 10^4 cfu/mL | viable count With LAE (Fungi; Example 4, aqueous solution with a surfactants' mixture (bath gels, disodium cocoamfoacetate), 7 days): 2.7 · 10^2 cfu/mL | viable count With LAE (Fungi; Example 4, aqueous solution with a surfactants' mixture (bath gels, disodium cocoamfoacetate), 14 days): <9.9 · 10^1 cfu/mL | viable count With LAE (Fungi; Example 4, aqueous solution with a surfactants' mixture (bath gels, disodium cocoamfoacetate), Initial): 1.9 · 10^4 cfu/mL | viable count With LAE (Fungi; Example 5, aqueous solution with a surfactants' mixture (bath gels, disodium lauryl sulfosuccinate), 7 days): <9.9 · 10^1 cfu/mL | viable count With LAE (Fungi; Example 5, aqueous solution with a surfactants' mixture (bath gels, disodium lauryl sulfosuccinate), 14 days): <9.9 · 10^1 cfu/mL | viable count With LAE (Fungi; Example 5, aqueous solution with a surfactants' mixture (bath gels, disodium lauryl sulfosuccinate), Initial): 1.4 · 10^4 cfu/mL | viable count With LAE (Fungi; Example 6, hydroalcoholic gel (after-shaving lotions), 7 days): 4.1 · 10^2 cfu/mL | viable count With LAE (Fungi; Example 6, hydroalcoholic gel (after-shaving lotions), 14 days): <9.9 · 10^1 cfu/mL | viable count With LAE (Fungi; Example 6, hydroalcoholic gel (after-shaving lotions), Initial): 9.1 · 10^4 cfu/mL | viable count With LAE (Fungi; Example 7, facial tonic, 7 days): 1.3 · 10^2 cfu/mL | viable count With LAE (Fungi; Example 7, facial tonic, 14 days): <9.9 · 10^1 cfu/mL | viable count With LAE (Fungi; Example 7, facial tonic, Initial): 2.1 · 10^4 cfu/mL | viable count With LAE (Fungi; Example 8, mask-up cleaner, 7 days): 3.5 · 10^2 cfu/mL | viable count With LAE (Fungi; Example 8, mask-up cleaner, 14 days): <9.9 · 10^1 cfu/mL | viable count With LAE (Fungi; Example 8, mask-up cleaner, Initial): 7.6 · 10^4 cfu/mL | viable count With LAE (Fungi; Example 9, fluid oil-in-water emulsion with non-ionic surfactants (body oil), 7 days): 1.4 · 10^2 cfu/mL | viable count With LAE (Fungi; Example 9, fluid oil-in-water emulsion with non-ionic surfactants (body oil), 14 days): <9.9 · 10^1 cfu/mL | viable count With LAE (Fungi; Example 9, fluid oil-in-water emulsion with non-ionic surfactants (body oil), Initial): 7.6 · 10^4 cfu/mL | viable count With LAE (Fungi; Example 10, toothpaste formulation, 7 days): 1.6 · 10^2 cfu/mL | viable count With LAE (Fungi; Example 10, toothpaste formulation, 14 days): <9.9 · 10^1 cfu/mL | viable count With LAE (Fungi; Example 10, toothpaste formulation, Initial): 5.6 · 10^4 cfu/mL | viable count With LAE (Fungi; Example 11, aqueous solution with surfactants (shampoos), 7 days): 1.1 · 10^2 cfu/mL | viable count With LAE (Fungi; Example 11, aqueous solution with surfactants (shampoos), 14 days): <9.9 · 10^1 cfu/mL | viable count With LAE (Fungi; Example 11, aqueous solution with surfactants (shampoos), Initial): 9.6 · 10^4 cfu/mL | viable count With LAE (Fungi; Example 12, oil-in-water emulsion with non-ionic surfactants (face cream), 7 days): 8.7 · 10^2 cfu/mL | viable count With LAE (Fungi; Example 12, oil-in-water emulsion with non-ionic surfactants (face cream), 14 days): <9.9 · 10^1 cfu/mL | viable count With LAE (Fungi; Example 12, oil-in-water emulsion with non-ionic surfactants (face cream), Initial): 1.7 · 10^4 cfu/mL | viable count With LAE (Fungi; Example 13, oil-in-water emulsion with non-ionic surfactants (sun protector, polysorbate 60), 7 days): 2.7 · 10^2 cfu/mL | viable count With LAE (Fungi; Example 13, oil-in-water emulsion with non-ionic surfactants (sun protector, polysorbate 60), 14 days): <9.9 · 10^1 cfu/mL | viable count With LAE (Fungi; Example 13, oil-in-water emulsion with non-ionic surfactants (sun protector, polysorbate 60), Initial): 4.9 · 10^4 cfu/mL | viable count With LAE (Fungi; Example 14, oil-in-water emulsion with non-ionic surfactants (sun protector, cetyl dimethicone copolyol), 7 days): 6.7 · 10^2 cfu/mL | viable count With LAE (Fungi; Example 14, oil-in-water emulsion with non-ionic surfactants (sun protector, cetyl dimethicone copolyol), 14 days): <9.9 · 10^1 cfu/mL | viable count With LAE (Fungi; Example 14, oil-in-water emulsion with non-ionic surfactants (sun protector, cetyl dimethicone copolyol), Initial): 5.3 · 10^4 cfu/mL | viable count With LAE (Fungi; Example 15, emulsion for hands care, 7 days): 8.7 · 10^2 cfu/mL | viable count With LAE (Fungi; Example 15, emulsion for hands care, 14 days): <9.9 · 10^1 cfu/mL | viable count With LAE (Fungi; Example 15, emulsion for hands care, Initial): 5.8 · 10^4 cfu/mL | M.I.C. [2]: 32 ppm | M.I.C. [3]: 128 ppm | M.I.C. [4]: 32 ppm
